Measured values as given in US20140024677A1, “METHODS FOR INDUCING MITOCHONDRIAL BIOGENESIS” (MUSC Foundation For Research Development, priority 2012, published 2014).

Experiments:
mtDNA in kidney cortex = test: mtDNA copy number in kidney of dosed mice (D-loop/apoB); assay type: in vivo, C57BL/6 mice; details: 72 h after daily repeated i.p. injection with 100 mg/kg (so in the source)
Text: (§1) Mitochondrial DNA Content.

mtDNA in heart = test: mtDNA copy number in heart of dosed mice (D-loop/apoB); assay type: in vivo, C57BL/6 mice
Text: as §1

[1] = tested on: KIM-1, PGC-1α, COX I, NDUFB8 in renal cortical tissue
Description: I/R model of AKI. Eight-week-old male C57BL6 mice weighing 25-30 g were subjected to bilateral renal pedicle ligation. Briefly, renal artery and vein were isolated and blood flow was occluded with a vascular clamp for 20 min, and mice were euthanized at 24, 72, or 144 h after procedure, at which time kidneys were harvested for molecular analysis. All procedures involving animals were performed with approval from the IACUC in accordance with the NIH Guide for the Care and Use of Laboratory Animals.
Immunoblot analysis. Renal cortical tissue was lysed in RIPA buffer containing cocktail protease and phosphatase inhibitors. Total protein content was measured by the BCA assay. Fifty micrograms of total protein were loaded into SDS-PAGE gels and immunoblots were performed as previously described (26). Antibodies used for immunoblot studies were obtained from the following vendors: caspase 3 (Enzo Life Sciences), GAPDH (Fitzgerald Antibodies), COX I and NDUFB8 (MitoSciences), KIM-1 (R&D Systems), and PGC-1α (Calbiochem).
mRNA analysis. Total RNA was isolated from renal cortical tissue with TRIzol (Invitrogen) according to the manufacturer's protocol and cDNA was synthesized using RevertAid First Strand cDNA Synthesis Kit (Fermentas). PCR reactions were performed using 3:1 diluted cDNA product. Primers sequences for NDUFB8 and COX I were used.
Previous in vivo and in vitro research has identified depletion of mitochondrial function and abundance in models of hypoxia correlated with dysfunctional kidney function.

I/R induced AKI = details: after five doses started 24 h after I/R injury; 144 h
Description: Assessing renal function. For mice, blood was collected by retro-orbital eye bleed 24 h and 144 h. Creatinine levels were measured using a Quantichrom Creatinine Assay Kit (BioAssay Systems, Hayward, Calif.) according to the manufacturer's protocol.

renal mitochondria = details: treatment after I/R injury
Description: Mitochondrial function was measured ex vivo by isolating renal mitochondria and determining state 4 (basal respiration) and state 3 (ADP-stimulated respiratory rate).

[2] = tested on: adult feline cardiomyocytes (AFC); assay type: cell-based; details: 24 hr, formoterol 10 and 30 nM
Description: Respirometry assay. […] Each experimental plate was treated with vehicle controls (DMSO<0.5%), a positive control (SRT1720, 10 μM), blank controls, and the appropriate concentration of the compound of interest. The XF-96 protocol consists of five measurements of basal OCR (1 measurement/1.5 min), injection of FCCP (0.5 μM), and three measurements of uncoupled OCR (1 measurement/1.5 min). […] Quality control evaluations considered the basal and uncoupled rates of the vehicle control, positive control, and variances between duplicate treatment wells. […] This threshold is ≧1 S.D. above the historic mean for the vehicle control.

gastrocnemius muscle = test: Dexamethasone-induced muscle wasting, gastrocnemius weight; assay type: in vivo, Mice
Description: On the 8th day, gastrocnemius muscle was isolated from both the hind limbs and weighed. The average weights were normalized to initial body weights.

Compound: COc1ccc(C[C@@H](C)NC[C@H](O)c2ccc(O)c(NC=O)c2)cc1 (racemic) [formoterol, rac-(R,R)—N-[2-hydroxy-5-[1-hydroxy-2-[1-(4-methoxyphenyl)propan-2-ylamino]ethyl]phenyl]formamide]
- mtDNA copy number increase, kidney cortex (mtDNA in kidney cortex): 2 fold
- mtDNA copy number increase (FIG. 3C, heart figure) (mtDNA in heart; 24 h, i.p. 100 mg/kg (so in the source)): 2 fold
- mtDNA copy number increase (FIG. 3C, heart figure) (mtDNA in heart; 72 h, daily repeated i.p. 100 mg/kg (so in the source)): 2.5 fold
- KIM-1 protein expression ([1]; 144 h post I/R injury): to the level of sham vehicle
- Gene transcription and protein translation in sham animals ([1]; sham animals exposed to formoterol vs control animals): not significantly altered
- COX I gene expression ([1]; treatment after I/R, 144 h): restored with treatment of formoterol after I/R, but not significantly different than the I/R vehicle group
- COX I protein expression ([1]; treatment after I/R, 144 h): significantly above the I/R vehicle group
- NDUFB8 gene transcription ([1]; treatment after I/R, 144 h): did not restore
- NDUFB8 protein expression ([1]; treatment after I/R, 144 h): significantly above the I/R vehicle group
- Total PGC-1α gene expression ([1]; treatment from 24 h post I/R injury, 144 h): significantly above the I/R vehicle group, but not fully restored to control levels
- Serum creatinine (SCr) (I/R induced AKI): 0.29 mg/dL
- Mitochondrial respiration of isolated renal mitochondria (basal and state 3) (renal mitochondria): completely restore

Compound: C[C@H](Cc1ccc(OCC(=O)O)cc1)NC[C@H](O)c1cccc(Cl)c1.O.[Na] (relative stereo) [BRL 37344, (±)-(R*,R*)-[4-[2-[[2-(3-Chlorophenyl)-2-hydroxyethyl]amino]propyl]phenoxy]acetic acid sodium hydrate]
- Change in FCCP-uncoupled OCR [2]: did not have any significant effects

Compound: CC(C)NC[C@H](O)c1ccc(O)c(O)c1.Cl [isoproterenol, (R)-3,4-Dihydroxy-α-(isopropylaminomethyl)benzyl alcohol hydrochloride]
- Change in FCCP-uncoupled OCR [2]: did not have any significant effects

Compound: (3R)-N-methyl-3-(2-methylphenoxy)-3-phenylpropan-1-amine [Tomoxetine]
- Gastrocnemius muscle weight in DEX-treated mice (gastrocnemius muscle; co-injected with dexamethasone 25 mg/kg i.p. for 7 days, formoterol 100/300 ug/Kg i.p., atomoxetine 100 ug/kg i.p.): restored atrophied muscle back to normal

Compound: C[C@@H]1C[C@H]2[C@@H]3CCC4=CC(=O)C=C[C@]4(C)[C@@]3(F)[C@@H](O)C[C@]2(C)[C@@]1(O)C(=O)CO [DEX, dexamethasone]
- Decrease in gastrocnemius wt. compared to saline controls (gastrocnemius muscle; 25 mg/kg i.p., 7 days, weight normalized to initial body weight): 15%
